{"source": "patent US20120010254A1", "about": "(priority 2008, published 2012)", "key": {"[1]": {"target": "influenza virus sialidase (N1) (Influenza A virus, UniProt Q9WAA1)", "sequence (Q9WAA1 whole entry, looked up)": "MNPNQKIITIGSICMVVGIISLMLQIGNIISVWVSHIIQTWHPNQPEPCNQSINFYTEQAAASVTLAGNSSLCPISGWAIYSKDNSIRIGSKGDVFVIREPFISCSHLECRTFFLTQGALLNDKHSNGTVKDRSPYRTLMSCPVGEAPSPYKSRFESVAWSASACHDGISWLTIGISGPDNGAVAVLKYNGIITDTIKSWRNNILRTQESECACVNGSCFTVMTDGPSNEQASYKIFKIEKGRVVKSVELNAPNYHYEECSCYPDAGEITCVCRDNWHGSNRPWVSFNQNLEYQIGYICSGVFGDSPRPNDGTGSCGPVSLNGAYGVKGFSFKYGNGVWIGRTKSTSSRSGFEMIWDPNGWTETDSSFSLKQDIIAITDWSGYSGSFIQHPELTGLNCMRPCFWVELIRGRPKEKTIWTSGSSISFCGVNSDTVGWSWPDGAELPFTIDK", "assay": "biochemical"}, "[2]": {"test_system": "avian influenza virus H5N1", "settings": "literature value, Li et al. ref. 12; read-out: EC50 value against avian influenza virus H5N1; cited from earlier work"}}, "note": "Where a name gives a salt, the structure may show the parent alone. Read-outs that look alike come from different tables or passages of the source.", "data": [{"compound": "4-Acetylamino-3-[4-((17α)-estra-1,3,5(10)-triene-3,17-dihydroxy-17-yl)-[1,2,3]triazol-1-yl]-5-(1-ethyl-propoxy)-cyclohex-1-enecarboxylic acid L-arginine salt [Compound 44]", "values": [{"measurement": "Ki", "setting": "[1]; read-out: Ki", "value": 59, "unit": "µM"}]}, {"compound": "CC(=O)N[C@H]1[C@H]([C@H](O)[C@H](O)CO)OC(C(=O)O)=C[C@@H]1N", "note": "[4-amino-4-deoxy-Neu5Ac2en, reference compound]", "values": [{"measurement": "Ki", "setting": "[1]; read-out: Ki", "value": 0.01, "unit": "µM"}]}, {"compound": "CC(=O)N[C@H]1[C@H]([C@H](O)[C@H](O)CO)OC(C(=O)O)=C[C@@H]1NC(=N)N", "note": "[4-deoxy-4-guanidino-Neu5Ac2en]", "values": [{"measurement": "EC50", "setting": "[2]", "value": 2.8, "unit": "µM"}]}, {"compound": "CCC(CC)OC1CC(C(=O)O)=CC(n2cc(CCCO)nn2)C1NC(C)=O", "note": "(centres unmarked) [Compound 1, 4-Acetylamino-5-(1-ethyl-propoxy)-3-[4-(3-hydroxy-propyl)-[1,2,3]triazol-1-yl]-cyclohex-1-enecarboxylic acid]", "values": [{"measurement": "Ki", "setting": "[1]", "value": 5, "unit": "µM"}]}, {"compound": "CCC(CC)OC1CC(C(=O)O)=CC(n2cc(C(O)CC)nn2)C1NC(C)=O", "note": "(centres unmarked) [Compound 2, 4-Acetylamino-5-(1-ethyl-propoxy)-3-[4-(1-hydroxy-propyl)-[1,2,3]triazol-1-yl]-cyclohex-1-enecarboxylic acid]", "values": [{"measurement": "Ki", "setting": "[1]", "value": 0.7, "unit": "µM"}]}, {"compound": "CCC(CC)OC1CC(C(=O)O)=CC(n2cc(C(C)(C)O)nn2)C1NC(C)=O", "note": "(centres unmarked) [Compound 3, 4-Acetylamino-5-(1-ethyl-propoxy)-3-[4-(1-hydroxy-1-methyl-ethyl)-[1,2,3]triazol-1-yl]-cyclohex-1-enecarboxylic acid]", "values": [{"measurement": "Ki", "setting": "[1]", "value": 2, "unit": "µM"}]}, {"compound": "CCC(CC)OC1CC(C(=O)O)=CC(n2cc(C3(O)CCCCC3)nn2)C1NC(C)=O", "note": "(centres unmarked) [Compound 5, 4-Acetylamino-5-(1-ethyl-propoxy)-3-[4-(1-hydroxy-cyclohexyl)-[1,2,3]triazol-1-yl]-cyclohex-1-enecarboxylic acid]", "values": [{"measurement": "IC50", "setting": "[1]", "value": 48, "unit": "µM"}, {"measurement": "Inhibitory activity in words", "setting": "[1]", "value": "less effective as inhibitors"}]}, {"compound": "CCC(CC)OC1CC(C(=O)O)=CC(n2cc(C3(O)CCCC3)nn2)C1NC(C)=O", "note": "(centres unmarked) [Compound 6, 4-Acetylamino-5-(1-ethyl-propoxy)-3-[4-(1-hydroxy-cyclopentyl)-[1,2,3]triazol-1-yl]-cyclohex-1-enecarboxylic acid]", "values": [{"measurement": "IC50", "setting": "[1]", "value": 110, "unit": "µM"}, {"measurement": "Inhibitory activity in words", "setting": "[1]", "value": "less effective as inhibitors"}]}, {"compound": "CCC(CC)OC1CC(C(=O)O)=CC(N)C1NC(C)=O", "note": "(centres unmarked) [Compound 38, 4-Acetylamino-3-amino-5-(1-ethyl-propoxy)-cyclohex-1-enecarboxylic acid, reference compound]", "values": [{"measurement": "Ki", "setting": "[1]", "value": 0.02, "unit": "µM"}]}, {"compound": "CCC(CC)OC1CC(C(=O)O)=CC(NC(=N)N)C1NC(C)=O", "note": "(centres unmarked) [Compound 39, 4-Acetylamino-5-(1-ethyl-propoxy)-3-guanidino-cyclohex-1-enecarboxylic acid Trifluoroacetate salt]", "values": [{"measurement": "Ki", "setting": "[1]", "value": 0.0048, "unit": "µM"}]}, {"compound": "CCC(CC)OC1CC(C(=O)O)=CC(n2cc(CCc3ccccc3)nn2)C1NC(C)=O", "note": "[Compound 43, 4-Acetylamino-5-(1-ethyl-propoxy)-3-(4-phenethyl-[1,2,3]triazol-1-yl)-cyclohex-1-enecarboxylic acid L-arginine salt]", "values": [{"measurement": "Ki", "setting": "[1]", "value": 12, "unit": "µM"}]}, {"compound": "CCC(O)c1cn([C@H]2C=C(C(=O)O)O[C@@H]([C@H](O)[C@H](O)CO)[C@@H]2NC(C)=O)nn1", "note": "(some centres unmarked) [formula (B)]", "values": [{"measurement": "EC50", "setting": "[2]", "value": 6.4, "unit": "µM"}]}]}
